Results as given in patent US20250296971A1, “GASTRIC INHIBITORY PEPTIDE RECEPTOR LIGANDS” (priority 2021, published 2025).
*1 amine or outer side, *2 acyl side, *3 side chain or, on linkers, in order; H or OH if unused. Where a SMILES comes first, the peptide text is derived from it. Bridges are numbered along the chain shown (N, C = ends). [ ]: non-standard residue; d: D form. The star is where a group is joined. X16 = NC(=O)[C@H](CCCCNC(=O)CN1CCN2CCN3CCN(CC1)CC(=O)[O][Lu]([O]C(=O)C2)[O]C(=O)C3)NC(=O)CCC(=O)NCCCOCCOCCOCCCN*; X5 = NC(=O)[C@H](CCCCNC(=O)CN1CCN(CC(=O)O)CCN(CC(=O)O)CCN(CC(=O)O)CC1)NC(=O)CCC(=O)NCCCOCCOCCOCCCN*; X3 = O=C(O)CN1CCN(CC(=O)O)CCN(CC(=O)NCCCOCCOCCOCCCN*)CCN(CC(=O)O)CC1; NH(1-deoxy-D-glucityl) = OC[C@@H](O)[C@@H](O)[C@H](O)[C@@H](O)CN*; DOTA = O=C(O)CN1CCN(CC(=O)O)CCN(CC(=O)*)CCN(CC(=O)O)CC1; Trp(5-Cl) = N[C@@H](Cc1c[nH]c2ccc(Cl)cc12)C(=O)O; Pyridine(2,6-diCH2) = c1cc(C[*:1])nc(C[*:2])c1; Trp(7-F) = N[C@@H](Cc1c[nH]c2c(F)cccc12)C(=O)O; mXylylene = c1cc(C[*:1])cc(C[*:2])c1; X7 = c1cc(CSCCN[*:2])cc(C[*:1])c1; Hyp = O=C(O)[C@@H]1C[C@@H](O)CN1; X1 = O=C(CN1CCC(N[*:1])CC1)[*:2]; NMeL = CN[C@@H](CC(C)C)C(=O)O; Suc = O=C(CCC(=O)[*:2])[*:1]; Tle = CC(C)(C)[C@H](N)C(=O)O; Nphe = O=C(O)CNCc1ccccc1; Thp = NC1(C(=O)O)CCOCC1; Aib = CC(C)(N)C(=O)O

target: T1, GIPR (CHO-K1-hGIPR cells) (Homo sapiens, UniProt P48546); experiment: FACS binding assay; details: competition with 20 nM GIP-057, 4° C. for 1 hour, read-out: pIC50 Category (converted)
T1 construct: host or cells: CHO-K1
T1 sequence (P48546 22-466): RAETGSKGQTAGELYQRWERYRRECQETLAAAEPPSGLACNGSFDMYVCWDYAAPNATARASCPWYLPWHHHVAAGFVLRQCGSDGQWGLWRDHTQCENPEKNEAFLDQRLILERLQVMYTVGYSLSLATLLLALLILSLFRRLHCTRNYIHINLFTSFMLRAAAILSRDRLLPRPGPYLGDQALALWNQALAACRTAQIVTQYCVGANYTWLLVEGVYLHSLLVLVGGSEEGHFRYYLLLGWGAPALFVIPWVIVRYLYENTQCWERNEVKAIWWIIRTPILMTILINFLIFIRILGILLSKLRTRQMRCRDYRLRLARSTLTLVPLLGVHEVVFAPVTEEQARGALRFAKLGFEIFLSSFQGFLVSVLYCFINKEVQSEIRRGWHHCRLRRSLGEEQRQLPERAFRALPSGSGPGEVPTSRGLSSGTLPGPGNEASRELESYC
How it was run: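 CHO-K1 cells expressing human GIPR, washed in PBS/1% FCS, then stained with 1 μg/mL APC-streptavidin for 30 min on ice.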

| Structure (SMILES) | IC50 |
| --- | --- |
| CC[C@H](C)[C@@H]1NC(=O)[C@H](CC(C)C)NC(=O)C(C)(C)NC(=O)[C@@H](NC(=O)[C@H](CC(C)C)N(C)C(=O)[C@H](CCC(=O)O)NC(=O)[C@@H]2CCCN2C(=O)[C@H](Cc2c[nH]c3ccccc23)NC(=O)[C@H](Cc2c[nH]c3ccccc23)NC(=O)[C@H](CC(=O)O)NC(C)=O)CSCc2cccc(c2)CSC[C@@H](C(=O)NCCCOCCOCCOCCCNC(=O)CCC(=O)N[C@@H](CCCCNC(=O)CN2CCN(CC(=O)O)CCN(CC(=O)O)CCN(CC(=O)O)CC2)C(N)=O)NC1=O [GIP-290, Ac-Asp-Trp-Trp-Pro-Glu-Nml-[Cys(3MeBn)-Aib-Leu-Ile-Cys]-Ttds-Lys(DOTA)-NH2] (Ac-DWWPE[NMeL]C[Aib]LIC-X5; linker 7-11 via mXylylene) | > 1 µM |
| CC[C@H](C)[C@@H]1NC(=O)[C@H](CC(C)C)NC(=O)C(C)(C)NC(=O)[C@@H](NC(=O)[C@@H](NC(=O)[C@H](CCC(=O)O)NC(=O)[C@@H]2CCCN2C(=O)[C@H](Cc2c[nH]c3ccccc23)NC(=O)[C@H](Cc2c[nH]c3ccccc23)NC(=O)[C@H](CC(=O)O)NC(C)=O)C(C)(C)C)CSCc2cccc(c2)CSC[C@@H](C(=O)NCCCOCCOCCOCCCNC(=O)CCC(=O)N[C@@H](CCCCNC(=O)CN2CCN(CC(=O)O)CCN(CC(=O)O)CCN(CC(=O)O)CC2)C(N)=O)NC1=O [GIP-275, Ac-Asp-Trp-Trp-Pro-Glu-Tle-[Cys(3MeBn)-Aib-Leu-Ile-Cys]-Ttds-Lys(DOTA)-NH2] (Ac-DWWPE[Tle]C[Aib]LIC-X5; linker 7-11 via mXylylene) | 0.1 to 0.794 µM |

same assay, conditions: competition with 20 nM GIP-057, 4° C., 1 hour, read-out: pIC50 Category (converted)

| Structure (SMILES) | IC50 |
| --- | --- |
| CC[C@H](C)[C@@H]1NC(=O)[C@H](CO)NC(=O)C2(CCOCC2)NC(=O)[C@@H](NC(=O)[C@@H](CC(C)C)NC(=O)[C@H](CCC(=O)O)NC(=O)[C@@H]2C[C@@H](O)CN2C(=O)[C@H](Cc2c[nH]c3ccc(Cl)cc23)NC(=O)[C@H](Cc2c[nH]c3ccccc23)NC(=O)[C@H](CC(=O)O)NC(C)=O)CSCc2cccc(n2)CSC[C@@H](C(N)=O)NC1=O [GIP-236, Ac-Asp-Trp-5Clw-Hyp-Glu-leu-[Cys(2Lut)-Thp-Ser-Ile-Cys]-NH2] (Ac-DW[Trp(5-Cl)][Hyp]E[dL]C[Thp]SIC-NH2; linker 7-11 via Pyridine(2,6-diCH2)) | < 0.01 µM |
| CC[C@H](C)[C@@H]1NC(=O)[C@H](CC(C)C)NC(=O)C2(CCOCC2)NC(=O)[C@@H](NC(=O)[C@@H](CC(C)C)NC(=O)[C@H](CCC(=O)O)NC(=O)[C@@H]2C[C@@H](O)CN2C(=O)[C@H](Cc2c[nH]c3ccc(Cl)cc23)NC(=O)[C@H](Cc2c[nH]c3ccccc23)NC(=O)[C@H](CC(=O)O)NC(C)=O)CSCc2cccc(n2)CSC[C@@H](C(=O)NC2CCN(CC(=O)N[C@H](CCC(=O)NC[C@H](O)[C@@H](O)[C@H](O)[C@H](O)CO)C(N)=O)CC2)NC1=O [GIP-177, Ac-Asp-Trp-5Clw-Hyp-Glu-leu-[Cys(2Lut)-Thp-Leu-Ile-Cys]-APAc-glu(AGLU)-NH2] (Ac-DW[Trp(5-Cl)][Hyp]E[dL]C[Thp]LIC[X1][dE](NH(1-deoxy-D-glucityl))-NH2; linker 7-11 via Pyridine(2,6-diCH2)) | < 0.01 µM |
| CC[C@H](C)[C@@H]1NC(=O)[C@H](CC(C)C)NC(=O)C2(CCOCC2)NC(=O)[C@@H](NC(=O)[C@@H](CC(C)C)NC(=O)[C@H](CCC(=O)O)NC(=O)CN(Cc2ccccc2)C(=O)[C@H](Cc2c[nH]c3ccc(Cl)cc23)NC(=O)[C@H](Cc2c[nH]c3ccccc23)NC(=O)[C@H](CC(=O)O)NC(C)=O)CSCc2cccc(n2)CSC[C@@H](C(N)=O)NC1=O [GIP-185, Ac-Asp-Trp-5Clw-Nphe-Glu-leu-[Cys(2Lut)-Thp-Leu-Ile-Cys]-NH2] (Ac-DW[Trp(5-Cl)][Nphe]E[dL]C[Thp]LIC-NH2; linker 7-11 via Pyridine(2,6-diCH2)) | < 0.01 µM |
| CC[C@H](C)[C@@H]1NC(=O)[C@H](CC(C)C)NC(=O)C2(CCOCC2)NC(=O)[C@@H](NC(=O)[C@@H](CC(C)C)NC(=O)[C@H](CCC(=O)O)NC(=O)[C@@H]2C[C@@H](O)CN2C(=O)[C@H](Cc2c[nH]c3ccc(Cl)cc23)NC(=O)[C@H](Cc2c[nH]c3ccccc23)NC(=O)[C@H](CC(=O)O)NC(=O)CCC(=O)NCCCOCCOCCOCCCNC(=O)CN2CCN(CC(=O)O)CCN(CC(=O)O)CCN(CC(=O)O)CC2)CSCc2cccc(n2)CSC[C@@H](C(=O)N[C@@H](CCCCNC(=O)CN2CCN(CC(=O)O)CCN(CC(=O)O)CCN(CC(=O)O)CC2)C(N)=O)NC1=O [GIP-054, DOTA-Ttds-Asp-Trp-5Clw-Hyp-Glu-leu-[Cys(2Lut)-Thp-Leu-Ile-Cys]-Lys(DOTA)-NH2] ({X3-Suc}-DW[Trp(5-Cl)][Hyp]E[dL]C[Thp]LICK(DOTA)-NH2; linker 7-11 via Pyridine(2,6-diCH2)) | < 0.01 µM |
| CC[C@H](C)[C@@H]1NC(=O)[C@H](CC(C)C)NC(=O)C2(CCOCC2)NC(=O)[C@@H](NC(=O)[C@@H](CC(C)C)NC(=O)[C@H](CCC(=O)O)NC(=O)[C@@H]2C[C@@H](O)CN2C(=O)[C@H](Cc2c[nH]c3ccc(Cl)cc23)NC(=O)[C@H](Cc2c[nH]c3c(F)cccc23)NC(=O)[C@H](CC(=O)O)NC(C)=O)CSCc2cccc(n2)CSC[C@@H](C(N)=O)NC1=O [GIP-221, Ac-Asp-7Fw-5Clw-Hyp-Glu-leu-[Cys(2Lut)-Thp-Leu-Ile-Cys]-NH2] (Ac-D[Trp(7-F)][Trp(5-Cl)][Hyp]E[dL]C[Thp]LIC-NH2; linker 7-11 via Pyridine(2,6-diCH2)) | < 0.01 µM |
| CC[C@H](C)[C@@H]1NC(=O)[C@H](CC(C)C)NC(=O)C2(CCOCC2)NC(=O)[C@@H](NC(=O)[C@@H](CC(C)C)NC(=O)[C@H](CCC(=O)O)NC(=O)[C@@H]2CCCN2C(=O)[C@H](Cc2c[nH]c3ccc(Cl)cc23)NC(=O)[C@H](Cc2c[nH]c3ccccc23)NC(=O)CCC(=O)O)CSCc2cccc(c2)CSC[C@@H](C(N)=O)NC1=O [GIP-199] (Suc-W[Trp(5-Cl)]PE[dL]C[Thp]LIC-NH2; linker 6-10 via mXylylene) | < 0.01 µM |
| CC[C@H](C)[C@@H]1NC(=O)[C@H](CC(C)C)NC(=O)C(C)(C)NC(=O)[C@@H](NC(=O)[C@@H](CC(C)C)NC(=O)[C@H](CCC(=O)O)NC(=O)[C@@H]2CCCN2C(=O)[C@H](Cc2c[nH]c3ccc(Cl)cc23)NC(=O)[C@H](Cc2c[nH]c3ccccc23)NC(=O)[C@H](CC(=O)O)NC(=O)CN2CCC(NC(=O)CN3CCN(CC(=O)O)CCN(CC(=O)O)CCN(CC(=O)O)CC3)CC2)CSCc2cccc(c2)CSCCNC1=O [GIP-089, DOTA-APAc-Asp-Trp-5Clw-Pro-Glu-leu-[Cys(3MeBn)-Aib-Leu-Ile-AET]] ({DOTA}-[X1]DW[Trp(5-Cl)]PE[dL]C[Aib]LI; linker 8-C via X7) | < 0.01 µM |

same assay, conditions: pIC50 Category, competition with 20 nM GIP-057, 4° C., 1 hour

| Structure (SMILES) | IC50 |
| --- | --- |
| CC[C@H](C)[C@@H]1NC(=O)[C@H](CC(C)C)NC(=O)C(C)(C)NC(=O)[C@@H](NC(=O)[C@@H](CC(C)C)NC(=O)[C@H](CCC(=O)O)NC(=O)[C@@H]2CCCN2C(=O)[C@H](Cc2c[nH]c3ccc(Cl)cc23)NC(=O)[C@H](Cc2c[nH]c3ccccc23)NC(=O)[C@H](CC(=O)O)NC(C)=O)CSCc2cccc(c2)CSC[C@@H](C(=O)NCCCOCCOCCOCCCNC(=O)CCC(=O)N[C@@H](CCCCNC(=O)CN2CCN3CCN4CCN(CC2)CC(=O)[O][Lu]([O]C(=O)C3)[O]C(=O)C4)C(N)=O)NC1=O [GIP-156, Ac-Asp-Trp-5Clw-Pro-Glu-leu-[Cys(3MeBn)-Aib-Leu-Ile-Cys]-Ttds-Lys(LuDOTA)-NH2] (Ac-DW[Trp(5-Cl)]PE[dL]C[Aib]LIC-X16; linker 7-11 via mXylylene) | < 0.01 µM |
